Experimental data: patent publication US20150031572A1, “MEANS AND METHODS FOR ASSESSING NEURONAL TOXICITY” (priority 2012, published 2015)
Where a name gives a salt, the structure may show the parent alone. Marks after values point to notes of the source that are not given here. One block for each molecule: values may come before it.

Test: Plasma metabolite profiling (GC-MS, LC-MS, SPE-LC-MS) of rats dosed once daily over 28 days; treatment ratios versus untreated control
Assay type: in vivo, rat
Outline: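 Male and female rats (5/sex/group) dosed once daily for 28 days; fasted anaesthetized animals bled retro-orbitally (EDTA plasma) on days 7, 14, 28, stored −80 °C under N2. Polar and lipid fractions profiled by GC-MS (derivatized), LC-MS/MRM; steroids by online SPE-LC-MS. Pool-normalized data; treatment ratios vs sex-matched controls, Welch test p-values.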

[1] = plasma, female rats, day 7, high dose, Table 9a
[2] = plasma, female rats, day 7, high dose, Table 9b
[3] = plasma, female rats, day 14, high dose, Table 9a
[4] = plasma, female rats, day 14, high dose, Table 9b
[5] = plasma, female rats, day 28, high dose, Table 9a
[6] = plasma, female rats, day 28, high dose, Table 9b
[7] = plasma, male rats, day 7, high dose, Table 9c
[8] = plasma, male rats, day 7, high dose, Table 9d
[9] = plasma, male rats, day 14, high dose, Table 9c
[10] = plasma, male rats, day 14, high dose, Table 9d
[11] = plasma, male rats, day 28, high dose, Table 9c
[12] = plasma, male rats, day 28, high dose, Table 9d
[13] = plasma, female rats, day 7, high dose, Table 4a
[14] = plasma, female rats, day 7, high dose, Table 4b
[15] = plasma, female rats, day 7, high dose, Table 6c
[16] = plasma, female rats, day 7, high dose, Table 6d
[17] = plasma, female rats, day 14, high dose, Table 4a
[18] = plasma, female rats, day 14, high dose, Table 4b
[19] = plasma, female rats, day 14, high dose, Table 6c
[20] = plasma, female rats, day 14, high dose, Table 6d
[21] = plasma, female rats, day 28, high dose, Table 4a
[22] = plasma, female rats, day 28, high dose, Table 4b
[23] = plasma, female rats, day 28, high dose, Table 6c
[24] = plasma, female rats, day 28, high dose, Table 6d
[25] = plasma, male rats, day 7, high dose, Table 3a
[26] = plasma, male rats, day 7, high dose, Table 3b
[27] = plasma, male rats, day 14, high dose, Table 3a
[28] = plasma, male rats, day 14, high dose, Table 3b
[29] = plasma, male rats, day 28, high dose, Table 3a
[30] = plasma, male rats, day 28, high dose, Table 3b

Compound: Cn1ncc(C(=O)c2ccc(S(C)(=O)=O)c(C3=NOCC3)c2Cl)c1O [[3-(4,5-dihydro-isoxazol-3-yl)-4-methylsulfonyl-2-chlorphenyl](5-hydroxy-1-methyl-1H-pyrazol-4-yl)methanone]
4-Hydroxyphenylpyruvate, ratio versus control [1]: 26.68*
Glycine, ratio versus control [1]: 1.37*
Phosphatidylcholine (C18:0,C18:2), ratio versus control [1]: 1.12*
Serine, ratio versus control [1]: 1.16*
TAG (C16:0,C18:2), ratio versus control [1]: 2.56*
TAG (C18:1,C18:2), ratio versus control [1]: 2.72*
TAG (C18:2,C18:2), ratio versus control [1]: 3.93*
Threonine, ratio versus control [1]: 1.16
Tyrosine, ratio versus control [1]: 16.36*
gamma-Linolenic acid (C18:cis[6,9,12]3), ratio versus control [1]: 1.44*
5-Oxoproline, ratio versus control [2]: 0.56*
Glutamine, ratio versus control [2]: 0.49*
4-Hydroxyphenylpyruvate, ratio versus control [3]: 25.92*
Glycine, ratio versus control [3]: 1.24*
Phosphatidylcholine (C18:0,C18:2), ratio versus control [3]: 1.12*
Serine, ratio versus control [3]: 1.18*
TAG (C16:0,C18:2), ratio versus control [3]: 2.2*
TAG (C18:1,C18:2), ratio versus control [3]: 2.89*
TAG (C18:2,C18:2), ratio versus control [3]: 2.47*
Threonine, ratio versus control [3]: 1.33*
Tyrosine, ratio versus control [3]: 16.29*
gamma-Linolenic acid (C18:cis[6,9,12]3), ratio versus control [3]: 1.55*
5-Oxoproline, ratio versus control [4]: 0.68*
Glutamine, ratio versus control [4]: 0.53*
4-Hydroxyphenylpyruvate, ratio versus control [5]: 24.95*
Glycine, ratio versus control [5]: 1.25*
Phosphatidylcholine (C18:0,C18:2), ratio versus control [5]: 1.11*
Serine, ratio versus control [5]: 1.14*
TAG (C16:0,C18:2), ratio versus control [5]: 2.44*
TAG (C18:1,C18:2), ratio versus control [5]: 3.2*
TAG (C18:2,C18:2), ratio versus control [5]: 2.77*
Threonine, ratio versus control [5]: 1.24*
Tyrosine, ratio versus control [5]: 12.88*
gamma-Linolenic acid (C18:cis[6,9,12]3), ratio versus control [5]: 1.77*
5-Oxoproline, ratio versus control [6]: 0.58*
Glutamine, ratio versus control [6]: 0.52*
4-Hydroxyphenylpyruvate, ratio versus control [7]: 31.22*
Lysine, ratio versus control [7]: 1.23*
Threonine, ratio versus control [7]: 1.16*
Tyrosine, ratio versus control [7]: 21.56*
5-Oxoproline, ratio versus control [8]: 0.5*
Citrulline, ratio versus control [8]: 0.73*
Glutamine, ratio versus control [8]: 0.41*
Phenylalanine, ratio versus control [8]: 0.79*
4-Hydroxyphenylpyruvate, ratio versus control [9]: 34.78*
Lysine, ratio versus control [9]: 1.32*
Threonine, ratio versus control [9]: 1.2*
Tyrosine, ratio versus control [9]: 18.22*
5-Oxoproline, ratio versus control [10]: 0.58*
Citrulline, ratio versus control [10]: 0.72*
Glutamine, ratio versus control [10]: 0.43*
Phenylalanine, ratio versus control [10]: 0.9*
4-Hydroxyphenylpyruvate, ratio versus control [11]: 25.05*
Lysine, ratio versus control [11]: 1.29*
Threonine, ratio versus control [11]: 1.5*
Tyrosine, ratio versus control [11]: 14.42*
5-Oxoproline, ratio versus control [12]: 0.54*
Citrulline, ratio versus control [12]: 0.8*
Glutamine, ratio versus control [12]: 0.41*
Phenylalanine, ratio versus control [12]: 0.82

Ceramide (d18:1,C24:1), ratio versus control [13]: 1.23
Docosapentaenoic acid (C22:cis[7,10,13,16,19]5), ratio versus control [13]: 2.26*
Elaidic acid (C18:trans[9]1), ratio versus control [13]: 1.52*
Galactose, lipid fraction, ratio versus control [13]: 1.46*
Myristic acid (C14:0), ratio versus control [13]: 1.53*
Phosphatidylcholine (C16:0,C16:0), ratio versus control [13]: 1.4*
Progesterone, ratio versus control [13]: 9.81*
TAG No 07, ratio versus control [13]: 3.4*
Creatinine, ratio versus control [14]: 0.87
Glutamate, ratio versus control [14]: 0.67*
Glycine, ratio versus control [14]: 0.86*
Lactate, ratio versus control [14]: 0.6*
Myristic acid (C14:0), ratio versus control [14]: 1.53
Normetanephrine, ratio versus control [14]: 0.73*
Phosphocreatine, ratio versus control [14]: 0.61*
Serotonin (5-HT), ratio versus control [14]: 0.11*
Uric acid, ratio versus control [14]: 0.51*
4-Hydroxysphinganine (t18:0, Phytosphingosine), total, ratio versus control [15]: 1.49*
Docosahexaenoic acid (C22:cis[4,7,10,13,16,19]6), ratio versus control [15]: 1.7*
Docosapentaenoic acid (C22:cis[7,10,13,16,19]5), ratio versus control [15]: 2.26*
Galactose, lipid fraction, ratio versus control [15]: 1.46*
Palmitic acid (C16:0), ratio versus control [15]: 1.56*
Phosphatidylcholine (C16:0,C16:0), ratio versus control [15]: 1.4*
Phosphatidylcholine (C16:0,C22:6), ratio versus control [15]: 1.02
Phosphatidylcholine No 02, ratio versus control [15]: 1.17*
TAG (C16:0,C16:1), ratio versus control [15]: 4.38*
TAG (C16:0,C18:1,C18:3), ratio versus control [15]: 2.8*
TAG (C16:0,C18:2), ratio versus control [15]: 2.47*
TAG (C18:2,C18:2), ratio versus control [15]: 2.44*
TAG (C18:2,C18:3), ratio versus control [15]: 3.48*
TAG (C18:3,C18:2,C18:1), ratio versus control [15]: 3.89*
TAG No 059, ratio versus control [15]: 3.12*
4-Hydroxyphenylpyruvate, ratio versus control [16]: 0.42*
Glycine, ratio versus control [16]: 0.86*
Lactate, ratio versus control [16]: 0.6*
Lysophosphatidylcholine (C16:0), ratio versus control [16]: 0.99*
Uric acid, ratio versus control [16]: 0.51*
Ceramide (d18:1,C24:1), ratio versus control [17]: 1.47*
Docosapentaenoic acid (C22:cis[7,10,13,16,19]5), ratio versus control [17]: 1.55*
Elaidic acid (C18:trans[9]1), ratio versus control [17]: 0.97
Galactose, lipid fraction, ratio versus control [17]: 1.17*
Myristic acid (C14:0), ratio versus control [17]: 1.09
Phosphatidylcholine (C16:1,C18:2), ratio versus control [17]: 1.06
Progesterone, ratio versus control [17]: 1.28
TAG No 07, ratio versus control [17]: 0.62
myo-Inositol, lipid fraction, ratio versus control [17]: 1.26*
Creatinine, ratio versus control [18]: 1.02
Glutamate, ratio versus control [18]: 0.71*
Glycine, ratio versus control [18]: 0.86*
Lactate, ratio versus control [18]: 0.66
Myristic acid (C14:0), ratio versus control [18]: 1.09
Normetanephrine, ratio versus control [18]: 0.88
Serotonin (5-HT), ratio versus control [18]: 0.59
Uric acid, ratio versus control [18]: 0.5*
4-Hydroxysphinganine (t18:0, Phytosphingosine), total, ratio versus control [19]: 1.43*
Docosahexaenoic acid (C22:cis[4,7,10,13,16,19]6), ratio versus control [19]: 1.43*
Docosapentaenoic acid (C22:cis[7,10,13,16,19]5), ratio versus control [19]: 1.55*
Galactose, lipid fraction, ratio versus control [19]: 1.17*
Phosphatidylcholine (C16:0,C20:5), ratio versus control [19]: 0.99
Phosphatidylcholine (C16:0,C22:6), ratio versus control [19]: 1.22*
Phosphatidylcholine (C16:1,C18:2), ratio versus control [19]: 1.06
Phosphatidylcholine No 02, ratio versus control [19]: 1.19*
TAG (C16:0,C16:1), ratio versus control [19]: 0.81
TAG (C16:0,C18:1,C18:3), ratio versus control [19]: 0.76
TAG (C16:0,C18:2), ratio versus control [19]: 0.91
TAG (C18:2,C18:2), ratio versus control [19]: 0.81
TAG (C18:2,C18:3), ratio versus control [19]: 0.76
TAG (C18:3,C18:2,C18:1), ratio versus control [19]: 0.91
TAG No 059, ratio versus control [19]: 0.84
4-Hydroxyphenylpyruvate, ratio versus control [20]: 0.21*
Glycine, ratio versus control [20]: 0.86*
Lactate, ratio versus control [20]: 0.66
Lysophosphatidylcholine (C16:0), ratio versus control [20]: 1
Uric acid, ratio versus control [20]: 0.5*
Ceramide (d18:1,C24:1), ratio versus control [21]: 1.2
Docosapentaenoic acid (C22:cis[7,10,13,16,19]5), ratio versus control [21]: 1.54*
Elaidic acid (C18:trans[9]1), ratio versus control [21]: 1.18
Galactose, lipid fraction, ratio versus control [21]: 1.22
Myristic acid (C14:0), ratio versus control [21]: 1.18
Phosphatidylcholine (C16:1,C18:2), ratio versus control [21]: 1.5*
Progesterone, ratio versus control [21]: 2.41*
TAG No 07, ratio versus control [21]: 1.02
myo-Inositol, lipid fraction, ratio versus control [21]: 1.2
Creatinine, ratio versus control [22]: 0.89*
Glutamate, ratio versus control [22]: 0.76*
Glycine, ratio versus control [22]: 0.91
Lactate, ratio versus control [22]: 0.62*
Myristic acid (C14:0), ratio versus control [22]: 1.18
Normetanephrine, ratio versus control [22]: 0.95
Phosphocreatine, ratio versus control [22]: 0.47
Serotonin (5-HT), ratio versus control [22]: 1.37
Uric acid, ratio versus control [22]: 0.73*
Docosahexaenoic acid (C22:cis[4,7,10,13,16,19]6), ratio versus control [23]: 1.26
Docosapentaenoic acid (C22:cis[7,10,13,16,19]5), ratio versus control [23]: 1.54*
Galactose, lipid fraction, ratio versus control [23]: 1.22
Palmitic acid (C16:0), ratio versus control [23]: 1.2*
Phosphatidylcholine (C16:0,C20:5), ratio versus control [23]: 1.17*
Phosphatidylcholine (C16:1,C18:2), ratio versus control [23]: 1.5*
Phosphatidylcholine No 02, ratio versus control [23]: 1.2*
TAG (C16:0,C16:1), ratio versus control [23]: 1.75*
TAG (C16:0,C18:1,C18:3), ratio versus control [23]: 1.3*
TAG (C16:0,C18:2), ratio versus control [23]: 1.38*
TAG (C18:2,C18:3), ratio versus control [23]: 1.46*
TAG (C18:3,C18:2,C18:1), ratio versus control [23]: 1.44*
TAG No 059, ratio versus control [23]: 1.58*
4-Hydroxyphenylpyruvate, ratio versus control [24]: 1.02
Glycine, ratio versus control [24]: 0.91
Lactate, ratio versus control [24]: 0.62*
Lysophosphatidylcholine (C16:0), ratio versus control [24]: 0.98*
Uric acid, ratio versus control [24]: 0.73*
3-Methoxytyrosine, ratio versus control [25]: 1.12
Arginine, ratio versus control [25]: 1.22*
Tryptophan, ratio versus control [25]: 1.1
Glycine, ratio versus control [26]: 0.82*
Threonic acid, ratio versus control [26]: 0.66*
Arginine, ratio versus control [27]: 1.11*
myo-Inositol-2-phosphate, lipid fraction, ratio versus control [27]: 1.44*
Glycine, ratio versus control [28]: 0.95
Threonic acid, ratio versus control [28]: 0.52*
3-Methoxytyrosine, ratio versus control [29]: 1.47*
Arginine, ratio versus control [29]: 0.98
Tryptophan, ratio versus control [29]: 1.18*
myo-Inositol-2-phosphate, lipid fraction, ratio versus control [29]: 1.63*
Glycine, ratio versus control [30]: 0.86*
Threonic acid, ratio versus control [30]: 0.63*
3-Methoxytyrosine, ratio versus control (rat, in vivo): 1.33*
4-Hydroxysphinganine (t18:0, Phytosphingosine), total, ratio versus control (rat, in vivo): 1.16*
Palmitic acid (C16:0), ratio versus control (rat, in vivo): 1.12*
Phosphatidylcholine (C16:0,C16:0), ratio versus control (rat, in vivo): 1.32*
Phosphatidylcholine (C16:0,C20:5), ratio versus control (rat, in vivo): 1.05*
Phosphatidylcholine (C16:0,C22:6), ratio versus control (rat, in vivo): 1.15*
Phosphatidylcholine (C16:1,C18:2), ratio versus control (rat, in vivo): 1.41*
TAG (C18:2,C18:2), ratio versus control (rat, in vivo): 1.41*
Tryptophan, ratio versus control (rat, in vivo): 1.16*
myo-Inositol, lipid fraction, ratio versus control (rat, in vivo): 1.41*
myo-Inositol-2-phosphate, lipid fraction, ratio versus control (rat, in vivo): 1.41*
Compound: O=C1Cc2cc(CCN3CCN(c4nsc5ccccc45)CC3)c(Cl)cc2N1 [Ziprasidone hydrochloride]
